Measured values: patent publication US11028090B2 (Dong Wha Pharm. Co., Ltd., priority 2017, dated 2021)
Read-outs that look alike come from different tables or passages of the source.

Key:
[1] = molecular target: BRD4 (BD1+BD2) bromodomain (Homo sapiens (Human), UniProt O60885); experiment: BRD4 binding inhibition (AlphaScreen, GST-BRD4 vs tetraacetylated histone H4 peptide)
Method in brief: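 AlphaScreen read after 30 min dark incubation at room temperature with glutathione acceptor/streptavidin donor beads (10 μg/ml each). The beads were added to compound plus 100 nM biotin-H4 (K5,8,12,16-acetyl) peptide and 100 nM GST-BRD4 BD1+BD2 in pH 7.4 HEPES/Tween/BSA/DTT buffer.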

[2] = test system: acute myelogenous leukemia cells (MV-4-11 cells); experiment: Cytotoxicity to acute myelogenous leukemia cells (MV-4-11 cells), CCK-8
[3] = GST-BRD4 (BD1+BD2) / biotinylated acetyl-histone H4 (Lys5,8,12,16) peptide, read-out: IC50, BRD4 binding inhibition
[4] = GST-BRD4 (BD1+BD2) vs biotinylated acetyl-histone H4 peptide, AlphaScreen, read-out: BRD4 IC50
[5] = Homo sapiens, MV4-11, 72 h, read-out: MV-4-11 Cytotoxicity IC50
[6] = Homo sapiens, MV4-11, 72 h, read-out: IC50, cytotoxicity against acute myelogenous leukemia cells

Structure (SMILES) | IC50 [1, 3] [nM] | IC50 [1, 4] [nM] | IC50 [2, 5] [nM] | IC50 [2, 6] [nM] | IC50 ([2]; read-out: MV-4-11 Cytotoxicity IC50, MV-4-11 cells, 72 hours, CCK-8) [nM]
COCCOc1ccc2c(c1)nc(NCCCCNC(=O)[C@H](NC(=O)[C@@H](O)C(C)C)C(C)C)c1nnc(C)n12 (stereo in doubt) [Example 403, 2-(S,R)-hydroxy-N-(1-{4-[7-(2-methoxy-ethoxy)-1-methyl-[1,2,4]triazolo[4,3-a]quinoxaline-4-ylamino]-butylcarbamoyl}-2-methyl-propyl)-3-methyl-butyramide] | ≤ 10 | 10 | 610 |  | 
Cc1nnc2c(NCCCCNC(=O)OC(C)(C)C)nc3ccccc3n12 [Example 1, [4-(1-methyl-[1,2,4]triazolo[4,3-a]quinoxaline-4-ylamino)-butyl]-carbamic acid-tert-butylester] |  | 74 | 980 |  | 
Cc1nnc2c(NCCCCNC(=O)[C@@H](O)C(C)C)nc3ccccc3n12 [Example 10, 2-(S)-hydroxy-N-[4-(1-methyl-[1,2,4]triazolo[4,3-a]quinoxaline-4-ylamino)-butyl]-3-methyl-butyramide] | ≤ 10 | 5 | 160 |  | 
Cc1nnc2c(NCCCCNC(=O)CC(C)C)nc3cc(F)c(F)cc3n12 [Example 37, N-[4-(7,8-difluoro-1-methyl-[1,2,4]triazolo[4,3-a]quinoxaline-4-ylamino)-butyl]-3-methyl-butyramide] | ≤ 10 | 8 | 121 | ≤ 200 | 
Cc1nnc2c(NCCCCNC(=O)[C@@H](O)C(C)C)nc3cc(F)c(F)cc3n12 [Example 39, N-[4-(7,8-difluoro-1-methyl-[1,2,4]triazolo[4,3-a]quinoxaline-4-ylamino)-butyl]-2-(S)-hydroxy-3-methyl-butyramide] | ≤ 10 | 6 | 190 |  | 
CCOC(=O)NCCCCNc1nc2cc(OC)c(OC)cc2n2c(C)nnc12 [Example 61, [4-(7,8-dimethoxy-1-methyl-[1,2,4]triazolo[4,3-a]quinoxaline-4-ylamino)-butyl]-carbamic acid ethylester] |  | 56 | 380 |  | 
CCC(C)OC(=O)NCCCCNc1nc2cc(OC)c(OC)cc2n2c(C)nnc12 (stereo not drawn) [Example 63, [4-(7,8-dimethoxy-1-methyl-[1,2,4]triazolo[4,3-a]quinoxaline-4-ylamino)-butyl]-carbamic acid-sec-butylester] | ≤ 50 | 12 | 70 | ≤ 200 | 
CCCOC(=O)NCCCCNc1nc2cc(OC)c(OC)cc2n2c(C)nnc12 [Example 64, [4-(7,8-dimethoxy-1-methyl-[1,2,4]triazolo[4,3-a]quinoxaline-4-ylamino)-butyl]-carbamic acid propylester] | ≤ 50 | 20 | 120 | ≤ 200 | 
COc1cc2nc(NCCCCNC(=O)OCc3ccccc3)c3nnc(C)n3c2cc1OC [Example 68, [4-(7,8-dimethoxy-1-methyl-[1,2,4]triazolo[4,3-a]quinoxaline-4-ylamino)-butyl]-carbamic acid benzylester] | ≤ 50 | 38 | 450 |  | 
COc1cc2nc(NCCCCNC(=O)C(C)C)c3nnc(C)n3c2cc1OC [Example 70, N-[4-(7,8-dimethoxy-1-methyl-[1,2,4]triazolo[4,3-a]quinoxaline-4-ylamino)-butyl]-isobutyramide] | ≤ 50 |  | 370 |  | 
COc1cc2nc(NCCCCNC(=O)C=C(C)C)c3nnc(C)n3c2cc1OC [Example 71, 3-methyl-butene-2-oic acid-[4-(7,8-dimethoxy-1-methyl-[1,2,4]triazolo[4,3-a]quinoxaline-4-ylamino)-butyl]-amide] | ≤ 50 | 18 | 110 | ≤ 200 | 
C/C=C/C(=O)NCCCCNc1nc2cc(OC)c(OC)cc2n2c(C)nnc12 [Example 72, butene-2-oic acid-[4-(7,8-dimethoxy-1-methyl-[1,2,4]triazolo[4,3-a]quinoxaline-4-ylamino)-butyl]-amide] | ≤ 50 | 21 | 470 |  | 
CCC(C)CC(=O)NCCCCNc1nc2cc(OC)c(OC)cc2n2c(C)nnc12 (stereo not drawn) [Example 73, 3-methyl-pentanoic acid-[4-(7,8-dimethoxy-1-methyl-[1,2,4]triazolo[4,3-a]quinoxaline-4-ylamino)-butyl]-amide] | ≤ 50 | 15 | 10 | ≤ 200 | 
COc1cc2nc(NCCCCNC(=O)C3CC3)c3nnc(C)n3c2cc1OC [Example 76, cyclopropane-carboxylic acid-[4-(7,8-dimethoxy-1-methyl-[1,2,4]triazolo[4,3-a]quinoxaline-4-ylamino)-butyl]-amide] | ≤ 50 | 38 | 870 |  | 
CCC(CC)C(=O)NCCCCNc1nc2cc(OC)c(OC)cc2n2c(C)nnc12 [Example 78, N-[4-(7,8-dimethoxy-1-methyl-[1,2,4]triazolo[4,3-a]quinoxaline-4-ylamino)-butyl]-2-ethyl-butyramide] | ≤ 50 | 20 | 140 | ≤ 200 | 
COc1cc2nc(NCCCCNC(=O)CCC(C)C)c3nnc(C)n3c2cc1OC [Example 79, 4-methyl-pentanoic acid [4-(7,8-dimethoxy-1-methyl-[1,2,4]triazolo[4,3-a]quinoxaline-4-ylamino)-butyl]-amide] | ≤ 10 | 5 | 70 | ≤ 200 | 
COc1cc2nc(NCCCCNC(=O)CCC3CCCC3)c3nnc(C)n3c2cc1OC [Example 81, 3-cyclopentyl-N-[4-(7,8-dimethoxy-1-methyl-[1,2,4]triazolo[4,3-a]quinoxaline-4-ylamino)-butyl]-propionamide] | ≤ 10 | 10 | 100 | ≤ 200 | 
COc1cc2nc(NCCCCNC(=O)[C@@H](O)C(C)C)c3nnc(C)n3c2cc1OC [Example 83, N-[4-(7,8-dimethoxy-1-methyl-[1,2,4]triazolo[4,3-a]quinoxaline-4-ylamino)-butyl]-2-(S)-hydroxy-3-methyl-butyramide] | ≤ 10 | 2 | 211 |  | 
Cc1nnc2c(NCCCCNC(=O)OC(C)C)nc3cc(OC(C)C)ccc3n12 [Example 452, [4-(7-isopropoxy-1-methyl-[1,2,4]triazolo[4,3-a]quinoxaline-4-ylamino)-butyl]-carbamic acid isopropylester] |  |  | 320 |  | 
COCCOc1cc2c(cc1OC)nc(NCCCCNC(=O)OC(C)(C)C)c1nnc(C)n12 [Example 483, {4-[7-methoxy-8-(2-methoxy-ethoxy)-1-methyl-[1,2,4]triazolo[4,3-a]quinoxaline-4-ylamino]-butyl}-carbamic acid-tert-butylester] |  |  | 460 |  | 
COCCOc1cc2c(cc1OC)nc(NCCCCN)c1nnc(C)n12 [Example 484, N^1-[7-methoxy-8-(2-methoxy-ethoxy)-1-methyl-[1,2,4]triazolo[4,3-a]quinoxaline-4-yl]-butane-1,4-diamine ditrifluoroacetic acid] |  |  | 460 |  | 
Cc1nnc2c(NCCCCNC(=O)[C@@H](NC(=O)CC(C)C)C(C)C)nc3cc(N4C[C@@H](C)O[C@@H](C)C4)ccc3n12 [Example 518, (S)-N-{4-[7-(2,6-dimethyl-morpholine-4-yl)-1-methyl-[1,2,4]triazolo[4,3-a]quinoxaline-4-ylamino]-butyl}-3-methyl-2-(3-methyl-butyrylamino)-butyramide] |  |  | 480 |  | 
Cc1nnc2c(NCCCCNC(=O)OC(C)(C)C)nc3cc(N4CCc5sccc5C4)ccc3n12 [Example 526, {4-[7-(6,7-dihydro-4H-thiano[3,2-c]pyridine-5-yl)-1-methyl-[1,2,4]triazolo[4,3-a]quinoxaline-4-ylamino]-butyl}-carbamic acid-tert-butylester] |  |  | 802 |  | 
COc1cc2nc(NCCCCNC(=O)CC(C)C)c3nnc(C)n3c2cc1NC(=O)NC(C)C [Example 561, N-{4-[8-(3-isopropyl-ureido)-7-methoxy-1-methyl-[1,2,4]triazolo[4,3-a]quinoxaline-4-ylamino]-butyl}-3-methyl-butyramide] |  |  | 60 | ≤ 200 | 
COc1cc2nc(NCCCCNC(=O)CC(C)C)c3nnc(C)n3c2cc1N(S(C)(=O)=O)S(C)(=O)=O [Example 566, N-[4-(8-dimethanesulfonyl-amino-7-methoxy-1-methyl-[1,2,4]triazolo[4,3-a]quinoxaline-4-ylamino)-butyl]-3-methyl-butyramide] |  |  |  |  | 550
COc1cc2nc(NCCCCNC(=O)OC(C)(C)C)c3nnc(C)n3c2cc1F [Example 572, [4-(8-fluoro-7-methoxy 1-methyl-[1,2,4]triazolo[4,3-a]quinoxaline-4-ylamino)-butyl]-carbamic acid-tert-butylester] |  |  | 238 |  | 
COc1cc2c(cc1OCCN1CCOCC1)nc(NCCCCNC(=O)CC(C)C)c1nnc(C)n12 [Example 577, N-{4-[8-methoxy-1-methyl-7-(2-morpholine-4-yl-ethoxy)-[1,2,4]triazolo[4,3-a]quinoxaline-4-ylamino]-butyl}-3-methyl butyramide] |  |  | 87 | ≤ 200 | 
Cc1noc(C)c1-c1ccc2c(c1)nc(NCCCCN)c1nnc(C)n12 [Example 584, N^1-[7-(3,5-dimethyl-isoxazol-4-yl)-1-methyl-[1,2,4]triazolo[4,3-a]quinoxaline-4-yl]-butane-1,4-diamine ditrifluoroacetic acid] |  |  | 130 | ≤ 200 | 
